According to the NIST ThermoML archive (doi:10.1016/j.tca.2009.06.015):
Numbers after ± are expanded uncertainties.

Experiments:
[1] = xn = mol fraction of the nth substance listed; details: 101 kPa, Liquid; for viscosity: Capillary tube (Ostwald / Ubbelohde) method; for mass density: Vibrating tube method
[2] = refractive index (Na D-line) (dimensionless); xn = mol fraction of the nth substance listed; details: 101 kPa, Liquid, Standard Abbe refractometry

A viscosity ([1]; 293.15 K, x2 = 0) of 6.52 ± 0.66 mPa·s, a viscosity ([1]; 293.15 K, x2 = 0.1142) of 4.326 ± 0.44 mPa·s and a viscosity ([1]; 293.15 K, x2 = 0.1947) of 3.337 ± 0.34 mPa·s were found for `CCCCCC(C)O` (centres undefined) [2-heptanol] + CC#N in this work. The viscosity ([1]; 293.15 K, x2 = 0.251) was 2.77 ± 0.28 mPa·s, the viscosity ([1]; 293.15 K, x2 = 0.3491) was 2.133 ± 0.21 mPa·s and the viscosity ([1]; 293.15 K, x2 = 0.4525) was 1.584 ± 0.16 mPa·s. The viscosity ([1]; 293.15 K, x2 = 0.5436) was 1.239 ± 0.12 mPa·s, the viscosity ([1]; 293.15 K, x2 = 0.6702) was 0.8636 ± 0.087 mPa·s and the viscosity ([1]; 293.15 K, x2 = 0.7574) was 0.6732 ± 0.068 mPa·s. For the same molecule, the viscosity ([1]; 293.15 K, x2 = 0.9588) was 0.3857 ± 0.039 mPa·s, the mass density ([1]; 293.15 K, x2 = 0) was 817.18 ± 0.3 kg/m3 and the mass density ([1]; 293.15 K, x2 = 0.1142) was 814.97 ± 0.3 kg/m3. The mass density ([1]; 293.15 K, x2 = 0.1947) was 813.16 ± 0.31 kg/m3, the mass density ([1]; 293.15 K, x2 = 0.251) was 811.78 ± 0.31 kg/m3 and the mass density ([1]; 293.15 K, x2 = 0.3491) was 809.24 ± 0.31 kg/m3. For the same molecule, the mass density ([1]; 293.15 K, x2 = 0.4525) was 806.32 ± 0.31 kg/m3, the mass density ([1]; 293.15 K, x2 = 0.5436) was 803.52 ± 0.31 kg/m3 and the mass density ([1]; 293.15 K, x2 = 0.6702) was 798.9 ± 0.3 kg/m3. The mass density ([1]; 293.15 K, x2 = 0.7574) was 795.18 ± 0.31 kg/m3, the mass density ([1]; 293.15 K, x2 = 0.877) was 789.27 ± 0.31 kg/m3 and the mass density ([1]; 293.15 K, x2 = 0.9588) was 784.77 ± 0.31 kg/m3. The viscosity ([1]; 298.15 K, x2 = 0) was 5.33 ± 0.54 mPa·s, the viscosity ([1]; 298.15 K, x2 = 0.1142) was 3.583 ± 0.36 mPa·s and the viscosity ([1]; 298.15 K, x2 = 0.1947) was 2.821 ± 0.28 mPa·s. For the same molecule, the viscosity ([1]; 298.15 K, x2 = 0.251) was 2.402 ± 0.24 mPa·s, the viscosity ([1]; 298.15 K, x2 = 0.3491) was 1.853 ± 0.19 mPa·s and the viscosity ([1]; 298.15 K, x2 = 0.4525) was 1.395 ± 0.14 mPa·s. For the same molecule, the viscosity ([1]; 298.15 K, x2 = 0.5436) was 1.106 ± 0.11 mPa·s, the viscosity ([1]; 298.15 K, x2 = 0.6702) was 0.7855 ± 0.079 mPa·s and the viscosity ([1]; 298.15 K, x2 = 0.7574) was 0.6191 ± 0.062 mPa·s. The viscosity ([1]; 298.15 K, x2 = 0.9588) was 0.3652 ± 0.037 mPa·s, the mass density ([1]; 298.15 K, x2 = 0) was 813.33 ± 0.3 kg/m3 and the mass density ([1]; 298.15 K, x2 = 0.1142) was 811.07 ± 0.31 kg/m3. For the same molecule, the mass density ([1]; 298.15 K, x2 = 0.1947) was 809.19 ± 0.31 kg/m3, the mass density ([1]; 298.15 K, x2 = 0.251) was 807.74 ± 0.31 kg/m3 and the mass density ([1]; 298.15 K, x2 = 0.3491) was 805 ± 0.31 kg/m3. It also gave a mass density ([1]; 298.15 K, x2 = 0.4525) of 802.07 ± 0.31 kg/m3, a mass density ([1]; 298.15 K, x2 = 0.5436) of 799.12 ± 0.31 kg/m3 and a mass density ([1]; 298.15 K, x2 = 0.6702) of 794.43 ± 0.31 kg/m3. The mass density ([1]; 298.15 K, x2 = 0.7574) was 790.57 ± 0.31 kg/m3, the mass density ([1]; 298.15 K, x2 = 0.877) was 784.26 ± 0.31 kg/m3 and the mass density ([1]; 298.15 K, x2 = 0.9588) was 779.64 ± 0.31 kg/m3. The viscosity ([1]; 303.15 K, x2 = 0) was 4.301 ± 0.43 mPa·s, the viscosity ([1]; 303.15 K, x2 = 0.1142) was 3.03 ± 0.3 mPa·s and the viscosity ([1]; 303.15 K, x2 = 0.1947) was 2.409 ± 0.24 mPa·s. It also gave a viscosity ([1]; 303.15 K, x2 = 0.251) of 2.066 ± 0.21 mPa·s, a viscosity ([1]; 303.15 K, x2 = 0.3491) of 1.619 ± 0.16 mPa·s and a viscosity ([1]; 303.15 K, x2 = 0.4525) of 1.251 ± 0.13 mPa·s. It also gave a viscosity ([1]; 303.15 K, x2 = 0.5436) of 0.9893 ± 0.099 mPa·s, a viscosity ([1]; 303.15 K, x2 = 0.6702) of 0.7174 ± 0.072 mPa·s and a viscosity ([1]; 303.15 K, x2 = 0.7574) of 0.5762 ± 0.058 mPa·s. For the same molecule, the viscosity ([1]; 303.15 K, x2 = 0.9588) was 0.3483 ± 0.035 mPa·s, the mass density ([1]; 303.15 K, x2 = 0) was 809.44 ± 0.31 kg/m3 and the mass density ([1]; 303.15 K, x2 = 0.1142) was 807.06 ± 0.31 kg/m3. It also gave a mass density ([1]; 303.15 K, x2 = 0.1947) of 805.14 ± 0.31 kg/m3, a mass density ([1]; 303.15 K, x2 = 0.251) of 803.62 ± 0.31 kg/m3 and a mass density ([1]; 303.15 K, x2 = 0.3491) of 800.93 ± 0.31 kg/m3. The mass density ([1]; 303.15 K, x2 = 0.4525) was 797.79 ± 0.31 kg/m3, the mass density ([1]; 303.15 K, x2 = 0.5436) was 794.69 ± 0.31 kg/m3 and the mass density ([1]; 303.15 K, x2 = 0.6702) was 789.88 ± 0.31 kg/m3. It also gave a mass density ([1]; 303.15 K, x2 = 0.7574) of 786 ± 0.31 kg/m3, a mass density ([1]; 303.15 K, x2 = 0.877) of 779.5 ± 0.31 kg/m3 and a mass density ([1]; 303.15 K, x2 = 0.9588) of 774.36 ± 0.31 kg/m3. The viscosity ([1]; 308.15 K, x2 = 0) was 3.528 ± 0.36 mPa·s, the viscosity ([1]; 308.15 K, x2 = 0.1142) was 2.578 ± 0.26 mPa·s and the viscosity ([1]; 308.15 K, x2 = 0.1947) was 2.072 ± 0.21 mPa·s. For the same molecule, the viscosity ([1]; 308.15 K, x2 = 0.251) was 1.816 ± 0.18 mPa·s, the viscosity ([1]; 308.15 K, x2 = 0.3491) was 1.466 ± 0.15 mPa·s and the viscosity ([1]; 308.15 K, x2 = 0.4525) was 1.112 ± 0.11 mPa·s. It also gave a viscosity ([1]; 308.15 K, x2 = 0.5436) of 0.8985 ± 0.09 mPa·s, a viscosity ([1]; 308.15 K, x2 = 0.6702) of 0.6625 ± 0.067 mPa·s and a viscosity ([1]; 308.15 K, x2 = 0.7574) of 0.539 ± 0.054 mPa·s. The viscosity ([1]; 308.15 K, x2 = 0.877) was 0.4454 ± 0.045 mPa·s, the viscosity ([1]; 308.15 K, x2 = 0.9588) was 0.3326 ± 0.033 mPa·s and the mass density ([1]; 308.15 K, x2 = 0) was 805.5 ± 0.31 kg/m3. For the same molecule, the mass density ([1]; 308.15 K, x2 = 0.1142) was 803.17 ± 0.31 kg/m3, the mass density ([1]; 308.15 K, x2 = 0.1947) was 801.12 ± 0.31 kg/m3 and the mass density ([1]; 308.15 K, x2 = 0.251) was 799.49 ± 0.31 kg/m3. For the same molecule, the mass density ([1]; 308.15 K, x2 = 0.3491) was 796.53 ± 0.31 kg/m3, the mass density ([1]; 308.15 K, x2 = 0.4525) was 793.31 ± 0.31 kg/m3 and the mass density ([1]; 308.15 K, x2 = 0.5436) was 790.11 ± 0.31 kg/m3. For the same molecule, the mass density ([1]; 308.15 K, x2 = 0.6702) was 785.23 ± 0.31 kg/m3, the mass density ([1]; 308.15 K, x2 = 0.7574) was 781.16 ± 0.31 kg/m3 and the mass density ([1]; 308.15 K, x2 = 0.877) was 774.15 ± 0.31 kg/m3. The mass density ([1]; 308.15 K, x2 = 0.9588) was 768.93 ± 0.31 kg/m3, the refractive index ([2]; 293.15 K, x2 = 0) was 1.4206 ± 0.0021 and the refractive index ([2]; 293.15 K, x2 = 0.1142) was 1.417 ± 0.002. The refractive index ([2]; 293.15 K, x2 = 0.1947) was 1.4145 ± 0.002, the refractive index ([2]; 293.15 K, x2 = 0.251) was 1.4124 ± 0.002 and the refractive index ([2]; 293.15 K, x2 = 0.3491) was 1.4094 ± 0.002. The refractive index ([2]; 293.15 K, x2 = 0.4525) was 1.4042 ± 0.002, the refractive index ([2]; 293.15 K, x2 = 0.5436) was 1.3986 ± 0.002 and the refractive index ([2]; 293.15 K, x2 = 0.6702) was 1.3881 ± 0.002. It also gave a refractive index ([2]; 293.15 K, x2 = 0.7574) of 1.3793 ± 0.002, a refractive index ([2]; 293.15 K, x2 = 0.877) of 1.3637 ± 0.002 and a refractive index ([2]; 293.15 K, x2 = 0.9588) of 1.3516 ± 0.002. For the same molecule, the refractive index ([2]; 298.15 K, x2 = 0) was 1.4188 ± 0.0021, the refractive index ([2]; 298.15 K, x2 = 0.1142) was 1.4158 ± 0.002 and the refractive index ([2]; 298.15 K, x2 = 0.1947) was 1.4146 ± 0.002. For the same molecule, the refractive index ([2]; 298.15 K, x2 = 0.251) was 1.4129 ± 0.002, the refractive index ([2]; 298.15 K, x2 = 0.3491) was 1.4094 ± 0.002 and the refractive index ([2]; 298.15 K, x2 = 0.4525) was 1.4039 ± 0.002. The refractive index ([2]; 298.15 K, x2 = 0.5436) was 1.3979 ± 0.002, the refractive index ([2]; 298.15 K, x2 = 0.6702) was 1.3873 ± 0.002 and the refractive index ([2]; 298.15 K, x2 = 0.7574) was 1.3781 ± 0.002. For the same molecule, the refractive index ([2]; 298.15 K, x2 = 0.877) was 1.3629 ± 0.002, the refractive index ([2]; 298.15 K, x2 = 0.9588) was 1.3503 ± 0.0021 and the refractive index ([2]; 303.15 K, x2 = 0) was 1.4165 ± 0.0021. It also gave a refractive index ([2]; 303.15 K, x2 = 0.1142) of 1.4154 ± 0.002, a refractive index ([2]; 303.15 K, x2 = 0.1947) of 1.4147 ± 0.002 and a refractive index ([2]; 303.15 K, x2 = 0.251) of 1.4135 ± 0.002. The refractive index ([2]; 303.15 K, x2 = 0.3491) was 1.4093 ± 0.002, the refractive index ([2]; 303.15 K, x2 = 0.4525) was 1.4029 ± 0.002 and the refractive index ([2]; 303.15 K, x2 = 0.5436) was 1.3973 ± 0.002. It also gave a refractive index ([2]; 303.15 K, x2 = 0.6702) of 1.3863 ± 0.002, a refractive index ([2]; 303.15 K, x2 = 0.7574) of 1.3774 ± 0.0021 and a refractive index ([2]; 303.15 K, x2 = 0.877) of 1.362 ± 0.0021. The refractive index ([2]; 303.15 K, x2 = 0.9588) was 1.3481 ± 0.0021, the refractive index ([2]; 308.15 K, x2 = 0) was 1.4143 ± 0.0021 and the refractive index ([2]; 308.15 K, x2 = 0.1142) was 1.4139 ± 0.0021. The refractive index ([2]; 308.15 K, x2 = 0.1947) was 1.413 ± 0.0021, the refractive index ([2]; 308.15 K, x2 = 0.251) was 1.4116 ± 0.0021 and the refractive index ([2]; 308.15 K, x2 = 0.3491) was 1.4079 ± 0.0021. The refractive index ([2]; 308.15 K, x2 = 0.4525) was 1.4022 ± 0.002, the refractive index ([2]; 308.15 K, x2 = 0.5436) was 1.3958 ± 0.0021 and the refractive index ([2]; 308.15 K, x2 = 0.6702) was 1.3845 ± 0.0021. It also gave a refractive index ([2]; 308.15 K, x2 = 0.7574) of 1.3744 ± 0.0022, a refractive index ([2]; 308.15 K, x2 = 0.877) of 1.3576 ± 0.0022 and a refractive index ([2]; 308.15 K, x2 = 0.9588) of 1.3452 ± 0.0022.
